Activity calls are given as the source filed them. The calls are words filed in the database; no cut-off is given here.

In the assay the target is Cyclin-dependent kinase inhibitor 1 (Homo sapiens) (UniProt P38936). The assay can be described thus: Effect on p53-induced p21 transcription in response to DNA damage at 5 uM.
Cyclin-dependent kinase inhibitor 1 (Homo sapiens), sequence (P38936 whole entry): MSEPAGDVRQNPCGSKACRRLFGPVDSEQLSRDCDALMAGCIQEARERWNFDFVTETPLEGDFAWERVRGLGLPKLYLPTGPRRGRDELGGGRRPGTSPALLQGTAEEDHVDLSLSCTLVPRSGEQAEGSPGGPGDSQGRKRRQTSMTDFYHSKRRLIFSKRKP

Take `Cc1ccc(NCCCN)c([N+](=O)[O-])c1`: the result was inactive.
With `CC(Cl)c1ccc(NCCCN)c([N+](=O)[O-])c1` (configuration not stated), the outcome was inactive.

The values above are taken from ChEMBL document CHEMBL1139870, “Structure-guided optimization of small molecules inhibiting human immunodeficiency virus 1 Tat association with the human coactivator p300/CREB binding protein-associated factor” (J Med Chem, 2007).
